Test results: US10189809B2, “SGC stimulators” (Ironwood Pharmaceuticals, Inc., priority 2010, dated 2019)
Like-named read-outs stand apart in the source and are kept apart here.

What was measured:
[1] = biological target: T1, soluble guanylate cyclase (sGC) (Homo sapiens (Human), UniProt Q02108+Q02153); test: sGC-HEK-cGMP assay run in the absence of SNP (HEK WC assay); format: cell-based; settings: compound at 30 μM, absence of SNP
In short: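 Intracellular cGMP was measured by LC/MS, using a standard curve, in HEK293 cells treated with compound for 10 min at 37° C after a 15 min 0.5 mM IBMX pretreatment, with no SNP present. Lysis and quench used 0.1 M HCl. EC50 values came from concentration-response fits.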

[2] = biological target: T1, soluble guanylate cyclase (sGC); test: sGC-HEK-cGMP assay run with SNP incubation (HEK WC assay); format: cell-based; settings: for HEK WC Assay (fold increase at 30 μM in the presence of 10 μM SNP): compound at 30 μM; for EC50: in the presence of 10 uM SNP
In short: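 EC50 values derive from concentration-response curves of intracellular cGMP in HEK293 cells, which express sGC endogenously. Compound and sodium nitroprusside were co-incubated 10 min at 37 °C after a 15-min 0.5 mM IBMX step, with 0.1 M HCl lysis and 1% DMSO vehicle.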

Thoracic aortic rings = test: Alternative thoracic aortic rings assay (Example 19b; resting tension as 100% inhibition); parameters: species or system rat; settings: Rattus norvegicus, Table 10B; for inhibition at 1 µM: read-out: Percent Relaxation at 1 μM; for inhibition at 3 µM: read-out: Percent Relaxation at 3 μM; for inhibition at 10 µM: read-out: Percent Relaxation at 10 μM; for EC50: read-out: Aortic Ring EC50
In short: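 EC50 values come from cumulative concentration-response relaxation of phenylephrine (100 ng/mL)-contracted thoracic aortic rings from 275-299 g male Sprague-Dawley rats. Rings were equilibrated at 1.0 g tension in oxygenated Krebs-Henseleit at 37 °C, with compounds given in DMSO and tension measured isometrically.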

[3] = read-out: HEK WC Assay (% Emax at 1 μM with 10 uM SNP)
[4] = read-out: HEK WC Assay (% Emax at 10 μM with 10 uM SNP)
[5] = read-out: HEK WC Assay (% Emax at 30 μM with 10 uM SNP)

T1 sequence (Q02153 whole entry): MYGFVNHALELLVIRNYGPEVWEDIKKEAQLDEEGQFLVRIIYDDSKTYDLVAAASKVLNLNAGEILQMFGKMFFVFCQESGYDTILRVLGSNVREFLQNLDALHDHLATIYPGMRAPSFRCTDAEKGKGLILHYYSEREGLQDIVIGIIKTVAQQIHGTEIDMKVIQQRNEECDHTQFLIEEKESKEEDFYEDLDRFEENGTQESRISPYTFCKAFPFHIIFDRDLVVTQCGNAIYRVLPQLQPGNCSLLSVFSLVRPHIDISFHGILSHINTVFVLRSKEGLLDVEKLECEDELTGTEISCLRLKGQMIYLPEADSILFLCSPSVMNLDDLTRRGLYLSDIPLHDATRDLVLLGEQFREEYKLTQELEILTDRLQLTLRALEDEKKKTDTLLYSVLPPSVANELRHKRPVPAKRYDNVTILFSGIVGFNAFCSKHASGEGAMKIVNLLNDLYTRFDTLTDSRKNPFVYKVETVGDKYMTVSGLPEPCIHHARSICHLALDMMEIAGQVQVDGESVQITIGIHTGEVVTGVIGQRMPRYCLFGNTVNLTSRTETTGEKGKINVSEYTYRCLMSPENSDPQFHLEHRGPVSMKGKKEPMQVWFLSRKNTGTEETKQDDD
T1 sequence (Q02108 whole entry): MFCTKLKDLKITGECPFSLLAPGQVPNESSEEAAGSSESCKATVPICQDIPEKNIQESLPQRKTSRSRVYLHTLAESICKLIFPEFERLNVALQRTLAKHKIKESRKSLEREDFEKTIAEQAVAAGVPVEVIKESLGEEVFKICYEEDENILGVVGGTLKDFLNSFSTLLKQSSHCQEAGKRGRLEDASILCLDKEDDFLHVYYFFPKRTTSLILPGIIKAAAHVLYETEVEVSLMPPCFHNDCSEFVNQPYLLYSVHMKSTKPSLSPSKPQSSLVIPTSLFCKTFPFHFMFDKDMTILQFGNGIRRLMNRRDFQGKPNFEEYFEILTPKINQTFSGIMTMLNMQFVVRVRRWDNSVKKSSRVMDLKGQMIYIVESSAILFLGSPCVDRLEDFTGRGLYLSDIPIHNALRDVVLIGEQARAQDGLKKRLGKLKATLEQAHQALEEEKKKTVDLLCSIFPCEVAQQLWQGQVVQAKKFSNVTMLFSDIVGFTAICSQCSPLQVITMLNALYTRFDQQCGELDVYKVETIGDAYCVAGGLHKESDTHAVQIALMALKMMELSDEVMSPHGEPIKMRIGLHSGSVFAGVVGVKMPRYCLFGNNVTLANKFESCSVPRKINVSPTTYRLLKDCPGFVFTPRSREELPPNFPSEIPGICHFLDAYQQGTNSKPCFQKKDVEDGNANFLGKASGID

HEK WC Assay (fold increase at 30 μM in the absence of SNP) [1] | HEK WC Assay (fold increase at 30 μM in the presence of 10 μM SNP) [2] | EC50 [2] [µM] | Emax [2, 3] [%] | Emax [2, 4] [%] | Emax [2, 5] [%] | EC50 (Thoracic aortic rings) [µM] | SMILES | inhibition at 1 µM (Thoracic aortic rings) [%] | inhibition at 3 µM (Thoracic aortic rings) [%] | inhibition at 10 µM (Thoracic aortic rings) [%]
C (C = 2 to <5 fold increase) | E (E = 10 to <20 fold increase) | < 20 | 20 to 40 | 40 to 60 | 40 to 60 | < 2 | Oc1nc(-c2cc(-c3ccon3)n(Cc3ccccc3F)n2)ncc1C(F)(F)F [Compound I-216] | 40 to 60 | 80 to 100 | 100 to 120
E (E = 10 to <20 fold increase) | G (G = 30 to <40 fold increase) | < 20 | 100 to 120 | 100 to 120 | 100 to 120 | < 2 | Nc1nc(-c2cc(-c3ccon3)n(Cc3ccccc3F)n2)ncc1NC(=O)c1ccc(F)cc1 [Compound I-168] | 60 to 80 | 100 to 120 | 100 to 120
D (D = 5 to <10 fold increase) | E (E = 10 to <20 fold increase) | < 20 |  | 80 to 100 | 60 to 80 | < 2 | Nc1nc(-c2cc(-c3ncco3)n(Cc3ccccc3F)n2)ncc1F [Compound I-147] | 60 to 80 | 80 to 100 | 80 to 100
E (E = 10 to <20 fold increase) | F (F = 20 to <30 fold increase) | < 20 | 80 to 100 | 100 to 120 | 100 to 120 | < 2 | Nc1nc(-c2cc(-c3ccon3)n(Cc3ccccc3F)n2)ncc1NC(=O)C1(C(F)(F)F)CC1 [Compound I-237] | 60 to 80 | 80 to 100 | 100 to 120
D (D = 5 to <10 fold increase) | E (E = 10 to <20 fold increase) | < 20 | 40 to 60 | 80 to 100 | 80 to 100 | < 2 | COCC(=O)Nc1cnc(-c2cc(-c3ccon3)n(Cc3ccccc3F)n2)nc1N [Compound I-177] | 80 to 100 | 80 to 100 | 
B (B = 1 to <2 fold increase) | D (D = 5 to <10 fold increase) | 40 to 60 |  | 20 to 40 | 20 to 40 | < 2 | Cc1csc(-c2cc(-c3ncccn3)nn2Cc2ccccc2F)n1 [Compound I-294] | 20 to 40 | 60 to 80 | 100 to 120
D (D = 5 to <10 fold increase) | F (F = 20 to <30 fold increase) | < 20 | 60 to 80 | 100 to 120 |  | < 2 | O=S(=O)(c1ccccc1)c1cnc(-c2cc(-c3ccon3)n(Cc3ccccc3F)n2)nc1O [Compound I-217] | 40 to 60 | 60 to 80 | 80 to 100
E (E = 10 to <20 fold increase) | E (E = 10 to <20 fold increase) | < 20 | 20 to 40 | 60 to 80 | 60 to 80 | < 2 | Nc1nc(-c2cc(-c3ccon3)n(Cc3ccccc3F)n2)ncc1NC(=O)c1ccncc1 [Compound I-176] | 80 to 100 | 100 to 120 | 
D (D = 5 to <10 fold increase) | E (E = 10 to <20 fold increase) | < 20 | 60 to 80 | 80 to 100 | 80 to 100 | < 2 | CC(C)(C)C(=O)Nc1cnc(-c2cc(-c3ccon3)n(Cc3ccccc3F)n2)nc1N [Compound I-277] | 60 to 80 | 80 to 100 | 100 to 120
E (E = 10 to <20 fold increase) | E (E = 10 to <20 fold increase) | < 20 | 60 to 80 | 100 to 120 | 80 to 100 | < 2 | Cc1ccccc1C(=O)Nc1cnc(-c2cc(-c3ccon3)n(Cc3ccccc3F)n2)nc1N [Compound I-184] | 80 to 100 | 100 to 120 | 
E (E = 10 to <20 fold increase) | E (E = 10 to <20 fold increase) | < 20 |  | 80 to 100 | 80 to 100 | < 2 | CC(C)COC(=O)Nc1cnc(-c2cc(-c3ccon3)n(Cc3ccccc3F)n2)nc1N [Compound I-150] | 40 to 60 | 80 to 100 | 80 to 100
D (D = 5 to <10 fold increase) | F (F = 20 to <30 fold increase) | < 20 | 60 to 80 | 60 to 80 | 80 to 100 | < 2 | Nc1nc(-c2cc(-c3ncco3)n(Cc3ccccc3F)n2)ncc1NC(=O)c1ccccc1 [Compound I-186] | 60 to 80 | 80 to 100 | 100 to 120
C (C = 2 to <5 fold increase) | D (D = 5 to <10 fold increase) | < 20 | 20 to 40 | 40 to 60 | 60 to 80 | < 2 | Nc1nc(-c2cc(-c3ccon3)n(Cc3ccccc3F)n2)ncc1N1CCCC1=O [Compound I-169] | 40 to 60 | 80 to 100 | 
C (C = 2 to <5 fold increase) | E (E = 10 to <20 fold increase) | 20 to 40 |  | 20 to 40 | 40 to 60 | < 2 | Fc1ccccc1Cn1nc(-c2ccccn2)cc1-c1ncon1 [Compound I-304] | 20 to 40 | 60 to 80 | 80 to 100
E (E = 10 to <20 fold increase) | E (E = 10 to <20 fold increase) | < 20 | 40 to 60 | 80 to 100 | 60 to 80 | < 2 | Nc1nc(-c2cc(-c3ccon3)n(Cc3ccccc3F)n2)ncc1Nc1nccs1 [Compound I-178] | 60 to 80 | 100 to 120 | 100 to 120

SMILES | HEK WC Assay (fold increase at 30 μM in the absence of SNP) [1] | HEK WC Assay (fold increase at 30 μM in the presence of 10 μM SNP) [2] | EC50 [2] [µM] | Emax [2, 3] [%] | Emax [2, 4] [%] | Emax [2, 5] [%] | EC50 (Thoracic aortic rings) [µM] | inhibition at 1 µM (Thoracic aortic rings) [%] | inhibition at 3 µM (Thoracic aortic rings) [%] | inhibition at 10 µM (Thoracic aortic rings) [%]
O=C(Nc1cnc(-c2cc(-c3ccon3)n(Cc3ccccc3F)n2)nc1O)c1ccccc1 [Compound I-158] | C (C = 2 to <5 fold increase) |  | 100 to 300 | 0 to 10 | 20 to 40 | 20 to 40 | 4 to 8 | 10 to 20 | 40 to 60 | 80 to 100
